The values that follow come from patent US4530838A, “Synthetic calcitonin-gene-related peptides for lowering blood pressure or gastric acid secretion in mammals” (The Salk Institute for Biological Studies, priority 1983, dated 1985).

Test [1] can be described thus: Blood pressure (MAP) lowering, general procedure of Example I, species not stated. It counts as in vivo. The following applies: species and dose not stated. As for the experimental part:
(§1) The synthetic CGRP was examined for its effect on mean arterial blood pressure(MAP) gastric acid secretion and plasma catecholamine levels. The effects of CGRP on MAP, gastric secretion and plasma catecholamine levels were determined in unanesthetized rats and Beagle dogs. MAP was measured via direct arterial monitoring and gastric acids were collected from chronic gastric-abdominal wall cannula. […] Mean arterial blood pressure in rats fell from 106 to 57±2 mm Hg within about 1 minute following an injection of 6.5 nmoles CGRP and then slowly returned to control values during a period of more than one hour. The iv administration of an injection equal to 650 pmoles of CGRP lowered MAP to 73±3 mm Hg in about one minute, returning to control value in about 1 hour. IV and ICV administration of CGRP (10 pmoles) to rats and dogs lowers pentagastrin-induced acid secretion by more than 70% for several hours.
The peptide [Lys^35 ]-CGRP having the formula: [drawing 7] is synthesized.

For test [2], the system named is rats. The experiment in a line: Mean arterial blood pressure (MAP) by direct arterial monitoring in unanesthetized rats. The test is classed as in vivo. As for the experimental part:
as §1

Test [3] has as its system rats. The experiment in a line: Pentagastrin-induced gastric acid secretion, chronic gastric-abdominal wall cannula, rats. The test is classed as in vivo. The following applies: IV and ICV, 10 pmoles, for several hours. As to the method: as §1
The subject of test [4] is Beagle dogs. The experiment in a line: Pentagastrin-induced gastric acid secretion, chronic gastric-abdominal wall cannula, dogs. The test is classed as in vivo. The following applies: IV and ICV, 10 pmoles, for several hours. As for the experimental part: as §1
In test [5] the test system is Beagle dogs. As to the kind of experiment: Mean arterial blood pressure (MAP) by direct arterial monitoring in unanesthetized Beagle dogs. It counts as in vivo. As for the experimental part:
as §1

A short description of test [6]: Plasma catecholamine (norepinephrine) levels in unanesthetized animals. The test is classed as in vivo, rats and Beagle dogs. The following applies: IV and ICV, 6.5 nmoles. As for the experimental part:
as §1

Where [7] appears, read: iv, degree and duration dose-related.

With `CC(C)C[C@H](NC(=O)CNC(=O)[C@H](C)NC(=O)[C@H](CC(C)C)NC(=O)[C@H](CCCNC(=N)N)NC(=O)[C@H](Cc1c[nH]cn1)NC(=O)[C@@H](NC(=O)[C@@H](NC(=O)[C@@H]1CSSC[C@H](NC(=O)[C@@H](N)CO)C(=O)N[C@@H](CC(N)=O)C(=O)N[C@@H]([C@@H](C)O)C(=O)N[C@@H](C)C(=O)N[C@@H]([C@@H](C)O)C(=O)N1)C(C)C)[C@@H](C)O)C(=O)N[C@@H](CC(C)C)C(=O)N[C@@H](CO)C(=O)N[C@@H](CCCNC(=N)N)C(=O)N[C@@H](CO)C(=O)NCC(=O)NCC(=O)N[C@H](C(=O)N[C@H](C(=O)N[C@@H](CCCCN)C(=O)N[C@@H](CC(=O)O)C(=O)N[C@@H](CC(N)=O)C(=O)N[C@@H](Cc1ccccc1)C(=O)N[C@H](C(=O)N1CCC[C@H]1C(=O)N[C@H](C(=O)N[C@@H](CC(N)=O)C(=O)N[C@H](C(=O)NCC(=O)N[C@@H](CO)C(=O)N[C@@H](CCCCN)C(=O)N[C@@H](C)C(=O)N[C@@H](Cc1ccccc1)C(N)=O)C(C)C)[C@@H](C)O)C(C)C)C(C)C)C(C)C` [[Lys^35]-CGRP], the “Effect on blood pressure / MAP” value in test [1] was “very significant lowering of MAP”.
On to `CC(C)C[C@H](NC(=O)CNC(=O)[C@H](C)NC(=O)[C@H](CC(C)C)NC(=O)[C@H](CCCNC(=N)N)NC(=O)[C@H](Cc1c[nH]cn1)NC(=O)[C@@H](NC(=O)[C@@H](NC(=O)[C@@H]1CSSC[C@H](NC(=O)[C@@H](N)CO)C(=O)N[C@@H](CC(N)=O)C(=O)N[C@@H]([C@@H](C)O)C(=O)N[C@@H](C)C(=O)N[C@@H]([C@@H](C)O)C(=O)N1)C(C)C)[C@@H](C)O)C(=O)N[C@@H](CC(C)C)C(=O)N[C@@H](CO)C(=O)N[C@@H](CCCNC(=N)N)C(=O)N[C@@H](CO)C(=O)NCC(=O)NCC(=O)N[C@H](C(=O)N[C@H](C(=O)N[C@@H](CCCCN)C(=O)N[C@@H](CC(=O)O)C(=O)N[C@@H](CC(N)=O)C(=O)N[C@@H](Cc1ccccc1)C(=O)N[C@H](C(=O)N1CCC[C@H]1C(=O)N[C@H](C(=O)N[C@@H](CC(N)=O)C(=O)N[C@H](C(=O)NCC(=O)N[C@@H](CO)C(=O)N[C@@H](CCC(=O)O)C(=O)N[C@@H](C)C(=O)N[C@@H](Cc1ccccc1)C(N)=O)C(C)C)[C@@H](C)O)C(C)C)C(C)C)C(C)C` [CGRP], for which the “Rapid decrease in MAP evoked, intercerebroventricular (icv) administration” value in the test on rats [2] (icv) and in the test on Beagle dogs [5] (icv) was “not” throughout. Moreover, the “Period of return of MAP to control values” with rats [2] (injection of 6.5 nmoles) was “more than one”. In addition, the “Mean arterial blood pressure after injection” value came to 57±2 mm Hg in the test on rats [2] (injection of 6.5 nmoles, fell from 106 within about 1 minute) and 73±3 mm Hg with rats [2] (iv injection of 650 pmoles, in about one minute). Moreover, the “Time of return of MAP to control value” in the test on rats [2] (iv injection of 650 pmoles) was “about 1 hour”. Further, the “Effect on MAP, intravenous (iv) administration” value in the test on rats [2] (setting [7]) and in the test on Beagle dogs [5] (setting [7]) was “rapid decrease in MAP” throughout. Also, the “Lowering of pentagastrin-induced acid secretion” value in the test with rats [3] and in the test on Beagle dogs [4] was “more than 70%” in each case. For the same molecule, the “Effect on blood pressure / MAP” value in test [1] is given as “substantially lower blood pressure for an extended time period”. Besides, in test [6], the Norepinephrine in plasma result is “significant elevation”.
